Test results reported in ChEMBL document CHEMBL1201862, “PubChem BioAssay data set” (2004).
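96-well plates; 48 h exposure; 5 concentrations. Endpoints by linear interpolation between flanking doses. Not reached: highest tested concentration assigned. Here, GI50 denotes the concentration required for 50% inhibition of growth.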 Activity calls are given as the source filed them. Rule as the data show it: active = GI50 up to about 1.1 µM and inactive = higher.

Key:
Assay in all cases: NCI-60 cell line screen, 48 h
786-0 = test system: 786-0
A498 = test system: A498
A549 = test system: A549
BT-549 = test system: BT-549
CAKI-1 = test system: CAKI-1
DU-145 = test system: DU-145
HCC 2998 = test system: HCC 2998
M14 = test system: M14
MOLT-4 = test system: MOLT-4
OVCAR-3 = test system: OVCAR-3
OVCAR-5 = test system: OVCAR-5
OVCAR-8 = test system: OVCAR-8
RXF 393 = test system: RXF 393
SF-539 = test system: SF-539
SK-MEL-28 = test system: SK-MEL-28
SN12C = test system: SN12C
SR = test system: SR
SW-620 = test system: SW-620
TK-10 = test system: TK-10
U-251 = test system: U-251

SMILES | GI50 (786-0) | GI50 (A498) | GI50 (A549) | GI50 (BT-549) | GI50 (CAKI-1) | GI50 (DU-145) | GI50 (HCC 2998) | GI50 (M14) | GI50 (MOLT-4) | GI50 (OVCAR-3) | GI50 (OVCAR-5) | GI50 (OVCAR-8) | GI50 (RXF 393) | GI50 (SF-539) | GI50 (SK-MEL-28) | GI50 (SN12C) | GI50 (SR) | GI50 (SW-620) | GI50 (TK-10) | GI50 (U-251)
N#CCc1nc(Cc2ccccc2)n[nH]1 | > 100 µM (inactive) | > 100 µM (inactive) | > 100 µM (inactive) | > 100 µM (inactive) | > 100 µM (inactive) | > 100 µM (inactive) | > 100 µM (inactive) | > 100 µM (inactive) | > 100 µM (inactive) | > 100 µM (inactive) | > 100 µM (inactive) | > 100 µM (inactive) | > 100 µM (inactive) | > 100 µM (inactive) | > 100 µM (inactive) | > 100 µM (inactive) | > 100 µM (inactive) | > 100 µM (inactive) | > 100 µM (inactive) | > 100 µM (inactive)
O=C1NN=C(O)C2C3c4ccccc4C(c4ccccc43)C12 (stereo not given) | > 100 µM (inactive) | > 100 µM (inactive) | > 100 µM (inactive) | > 100 µM (inactive) | > 100 µM (inactive) | > 100 µM (inactive) | > 100 µM (inactive) | > 100 µM (inactive) | > 100 µM (inactive) | > 100 µM (inactive) | > 100 µM (inactive) | > 100 µM (inactive) | > 100 µM (inactive) | > 100 µM (inactive) | > 100 µM (inactive) | > 100 µM (inactive) | > 100 µM (inactive) | > 100 µM (inactive) | > 100 µM (inactive) | > 100 µM (inactive)
N#Cc1cccc(C2ON=C(c3ccc([N+](=O)[O-])cc3)N2C23CC4CC(CC(C4)C2)C3)c1 (stereo not given) | > 100 µM (inactive) | > 100 µM (inactive) | 27.4 µM (inactive) | 82.6 µM (inactive) | 11.7 µM (inactive) | > 100 µM (inactive) | > 100 µM (inactive) | 57.8 µM (inactive) | 6.68 µM (inactive) | 39.3 µM (inactive) | 3.21 µM (inactive) | > 100 µM (inactive) | 13.1 µM (inactive) | > 100 µM (inactive) | > 100 µM (inactive) | > 100 µM (inactive) | 7.71 µM (inactive) | > 100 µM (inactive) | > 100 µM (inactive) | > 100 µM (inactive)
CN(O)C(=O)c1ccc(OCc2cccc(Cl)c2)cc1 | 12.4 µM (inactive) | 25.8 µM (inactive) | 16 µM (inactive) | 22.8 µM (inactive) | 18.5 µM (inactive) | 27.4 µM (inactive) | 15.3 µM (inactive) | 16.7 µM (inactive) | 9.64 µM (inactive) | 19.2 µM (inactive) | > 62.1 µM (inactive) | 19 µM (inactive) | 25.6 µM (inactive) | 19 µM (inactive) | 40.7 µM (inactive) | 18 µM (inactive) | 4.91 µM (inactive) | 32.8 µM (inactive) | 57.4 µM (inactive) | 15.2 µM (inactive)
CN(C)CCNc1ccc2c(=O)n(CCN(C)C)c(=O)n3c4ccccc4c(=O)c1c23 | < 0.0198 µM (active) | 0.157 µM (active) | < 0.0216 µM (active) | 0.238 µM (active) | 0.0133 µM (active) | 0.0197 µM (active) | < 0.0164 µM (active) | 0.0836 µM (active) | < 0.01 µM (active) | 0.218 µM (active) | 0.318 µM (active) | 0.0711 µM (active) | 0.109 µM (active) | 0.0321 µM (active) | 0.116 µM (active) | 0.0198 µM (active) | < 0.01 µM (active) | < 0.0208 µM (active) | 0.392 µM (active) | 0.0402 µM (active)
